Laboratory results reported in PMC7267738 (iScience, 2020).

Assays:
[1] = target: purified recombinant c-Met kinase domains (Homo sapiens, UniProt P08581); assay: Biochemical kinase assay
c-Met = c-Met (Homo sapiens, UniProt P08581); type: cell-based
Chain of c-Met (P08581 25-1390): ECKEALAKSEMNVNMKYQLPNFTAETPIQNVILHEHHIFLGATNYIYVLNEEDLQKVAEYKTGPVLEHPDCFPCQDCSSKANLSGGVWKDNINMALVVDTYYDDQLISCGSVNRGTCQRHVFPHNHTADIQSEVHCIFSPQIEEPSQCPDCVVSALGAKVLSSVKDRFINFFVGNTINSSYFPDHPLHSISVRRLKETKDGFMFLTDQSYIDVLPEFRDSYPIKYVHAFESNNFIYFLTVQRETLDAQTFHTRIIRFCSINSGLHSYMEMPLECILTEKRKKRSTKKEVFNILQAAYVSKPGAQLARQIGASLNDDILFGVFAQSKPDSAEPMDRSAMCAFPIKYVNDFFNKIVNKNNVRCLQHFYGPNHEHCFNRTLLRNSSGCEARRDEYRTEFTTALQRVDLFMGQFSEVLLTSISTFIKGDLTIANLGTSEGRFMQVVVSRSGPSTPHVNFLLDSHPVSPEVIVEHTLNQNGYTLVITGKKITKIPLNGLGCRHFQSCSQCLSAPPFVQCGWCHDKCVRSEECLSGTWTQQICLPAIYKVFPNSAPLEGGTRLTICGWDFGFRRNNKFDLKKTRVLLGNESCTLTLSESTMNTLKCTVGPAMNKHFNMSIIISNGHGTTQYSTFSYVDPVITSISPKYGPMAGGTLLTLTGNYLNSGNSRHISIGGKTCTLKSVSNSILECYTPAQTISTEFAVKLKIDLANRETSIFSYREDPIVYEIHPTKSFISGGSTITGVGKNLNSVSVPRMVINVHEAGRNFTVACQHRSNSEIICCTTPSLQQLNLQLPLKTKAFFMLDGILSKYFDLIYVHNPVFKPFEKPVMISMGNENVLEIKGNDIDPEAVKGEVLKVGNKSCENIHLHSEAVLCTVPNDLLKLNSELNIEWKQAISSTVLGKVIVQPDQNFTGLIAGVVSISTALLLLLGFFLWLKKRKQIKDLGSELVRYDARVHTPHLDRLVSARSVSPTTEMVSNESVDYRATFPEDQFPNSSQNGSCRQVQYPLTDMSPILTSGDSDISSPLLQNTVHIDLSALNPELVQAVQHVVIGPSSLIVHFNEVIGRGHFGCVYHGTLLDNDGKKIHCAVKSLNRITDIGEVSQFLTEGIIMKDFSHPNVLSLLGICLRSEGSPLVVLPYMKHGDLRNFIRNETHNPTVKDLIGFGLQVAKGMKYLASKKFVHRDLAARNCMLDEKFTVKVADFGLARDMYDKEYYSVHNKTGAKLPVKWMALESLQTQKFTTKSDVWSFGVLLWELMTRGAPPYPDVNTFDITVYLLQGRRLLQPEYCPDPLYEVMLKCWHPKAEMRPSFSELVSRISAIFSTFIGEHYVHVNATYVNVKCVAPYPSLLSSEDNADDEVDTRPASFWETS

Chain of purified recombinant c-Met kinase domains (P08581 1078-1345 limits assumed): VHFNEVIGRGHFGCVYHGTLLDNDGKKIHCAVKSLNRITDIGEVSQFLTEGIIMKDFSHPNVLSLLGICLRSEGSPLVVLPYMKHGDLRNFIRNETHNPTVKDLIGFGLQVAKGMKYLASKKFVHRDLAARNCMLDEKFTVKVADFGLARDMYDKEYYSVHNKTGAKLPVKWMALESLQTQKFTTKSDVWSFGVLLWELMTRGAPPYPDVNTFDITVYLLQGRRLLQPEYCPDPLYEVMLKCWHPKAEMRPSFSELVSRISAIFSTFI

Work on `COc1cc2ncnc(Oc3ccc(Nc4nccc5[nH]cc(-c6ccc(C(F)(F)F)cc6)c(=O)c45)cc3F)c2cc1OC` [Compound 5d] yielded an IC50 [1] of 0.0403 µM and an IC50 (c-Met) of 25 µM.
